Some test systems named below: SNB-75; OVCAR-3; NCI-H522; CCRF-CEM; TK-10; HOP-92; SK-MEL-28; M14; MDA-MB-231; UACC-257; SNB-19; HL-60; RXF 393; U-251; CAKI-1; SK-MEL-5; MDA-N; MCF7; T47D; UO-31.
Common to all, as to assay: NCI-60 cell line screen, 48 h

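Growth conditions: 96-well plates. Treatment: test compound, 48 hours, 5 concentrations. Analysis: linear interpolation between bracketing concentrations; unreached endpoints set to highest concentration. Here, GI50 denotes the concentration required for 50% inhibition of growth.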 Active and inactive are the calls of the source. No stated cut-off is given here; in the data, active = GI50 up to about 1.1 µM and inactive = higher. Some results are limits rather than exact numbers.

Consider `CC1=C(/C=C/C(C)=C/C=C/C(C)=C/C(=O)O)C(C)(C)CCC1` [TRETINOIN], for which the GI50 was > 61.9 µM (inactive) with SNB-75; 46.6 µM (inactive) in the assay with OVCAR-3; 56.9 µM (inactive) in the assay with NCI-H522; 44.3 µM (inactive) with CCRF-CEM; 71.8 µM (inactive) in the assay with TK-10; > 63.8 µM (inactive) in the assay with HOP-92. Further, the GI50 was 53.8 µM (inactive) in the assay with SK-MEL-28; 49.4 µM (inactive) in the assay with M14; 50.4 µM (inactive) in the assay with MDA-MB-231; 62.4 µM (inactive) with UACC-257; 47.5 µM (inactive) in the assay on SNB-19; 18 µM (inactive) with HL-60. The GI50 in the assay on RXF 393 is > 68.1 µM (inactive); in the assay on U-251 it was 51.3 µM (inactive); with CAKI-1 it was > 70.6 µM (inactive); in the assay on SK-MEL-5, 47.8 µM (inactive); in the assay with MDA-N, 45.8 µM (inactive); in the assay on MCF7 it was 29 µM (inactive). Moreover, the results for the GI50 in the assay with T47D and with UO-31 were 2.55 µM (inactive) and > 64.3 µM (inactive), respectively.

As for `Nc1ccn(C2CCC(CO)O2)c(=O)n1` (centres undefined), the GI50 in the assay with SNB-75 was > 100 µM (inactive); in the assay on OVCAR-3, > 100 µM (inactive); in the assay on NCI-H522, 656 µM (inactive); in the assay on CCRF-CEM, 46.5 µM (inactive); in the assay with TK-10, > 1000 µM (inactive); in the assay on HOP-92, > 100 µM (inactive). Also, the GI50 with SK-MEL-28 was > 100 µM (inactive); with M14, > 1000 µM (inactive); in the assay with MDA-MB-231 it was > 1000 µM (inactive); in the assay on UACC-257, > 100 µM (inactive); with SNB-19, > 100 µM (inactive); in the assay on HL-60, 698 µM (inactive). Besides, the GI50 in the assay on RXF 393 is > 100 µM (inactive); with U-251 it was > 100 µM (inactive); in the assay with CAKI-1 it was > 100 µM (inactive); in the assay with SK-MEL-5 it was > 100 µM (inactive); in the assay on MDA-N, > 1000 µM (inactive); with MCF7, 99.8 µM (inactive). Moreover, the GI50 in the assay with T47D was > 1000 µM (inactive); in the assay with UO-31, 836 µM (inactive).

In the case of `O=C1C2CC=CCC2C(=O)N1n1c(Cc2ccc(Cl)cc2)n[nH]c1=O` (centres undefined), the GI50 in the assay with SNB-75, in the assay with OVCAR-3, in the assay on NCI-H522, in the assay on CCRF-CEM, in the assay on TK-10 and in the assay with HOP-92 was > 100 µM (inactive) in each case. The GI50 in the assay on SK-MEL-28, in the assay on M14, with MDA-MB-231, with UACC-257, with HL-60 and with RXF 393 was > 100 µM (inactive) each time. Also, the GI50 in the assay with U-251, in the assay on CAKI-1, in the assay on SK-MEL-5, in the assay with MDA-N, with MCF7 and with T47D was > 100 µM (inactive) in each case. Further, in the assay on UO-31, the GI50 was > 100 µM (inactive).

For the molecule `COC(=O)C1=C(C)NC(C)=C(C(=O)OC)C1c1ccc(/[N+]([O-])=C/c2ccccc2)cc1`, the GI50 in the assay with SNB-75 is 34.9 µM (inactive); with OVCAR-3 it was 18.9 µM (inactive); in the assay on NCI-H522, 14.6 µM (inactive); with CCRF-CEM, 17 µM (inactive); in the assay on TK-10 it was 92.9 µM (inactive); in the assay on HOP-92, 20.8 µM (inactive). Besides, the GI50 with SK-MEL-28 is 18.7 µM (inactive); with M14 it was 18.1 µM (inactive); in the assay with MDA-MB-231, 41.1 µM (inactive); in the assay on UACC-257, 29.6 µM (inactive); in the assay with SNB-19, 94.2 µM (inactive); in the assay with HL-60 it was 15.1 µM (inactive). Also, the GI50 was 19.7 µM (inactive) in the assay on RXF 393; > 100 µM (inactive) in the assay with U-251; 18.7 µM (inactive) in the assay with CAKI-1; > 100 µM (inactive) with SK-MEL-5; 34.4 µM (inactive) with MDA-N; 16.7 µM (inactive) in the assay on MCF7. Besides, the figures for the GI50 with T47D and in the assay on UO-31 were 19.8 µM (inactive) and 37.1 µM (inactive), respectively.

For the molecule `N[C@H]1c2c(Br)sc(Br)c2C(=O)[C@H]1O`, the GI50 is 29.2 µM (inactive) with SNB-75; 7.36 µM (inactive) in the assay with OVCAR-3; 3.18 µM (inactive) in the assay with NCI-H522; 2.72 µM (inactive) with CCRF-CEM; 96.8 µM (inactive) with TK-10; 21.5 µM (inactive) with HOP-92. Further, the GI50 in the assay on SK-MEL-28 is 10.3 µM (inactive); with M14, 8.69 µM (inactive); with MDA-MB-231 it was 18.7 µM (inactive); in the assay with UACC-257, 14.2 µM (inactive); in the assay with SNB-19 it was 21.8 µM (inactive); in the assay with HL-60 it was 2.85 µM (inactive). Besides, the GI50 was 4.95 µM (inactive) in the assay on RXF 393; 14.4 µM (inactive) with U-251; 0.214 µM (active) in the assay with CAKI-1; 12.5 µM (inactive) with SK-MEL-5; 13.2 µM (inactive) with MDA-N; 13.3 µM (inactive) in the assay with MCF7. The results for the GI50 in the assay on T47D and with UO-31 were 21.9 µM (inactive) and 20.3 µM (inactive), respectively.

With `O=C1NC(=O)c2ccccc2/C1=C/c1ccc2c(c1)OCO2`, the GI50 is 28.1 µM (inactive) with SNB-75; 5.37 µM (inactive) in the assay with OVCAR-3; 31.3 µM (inactive) with NCI-H522; 5.92 µM (inactive) in the assay with CCRF-CEM; 55.7 µM (inactive) in the assay with TK-10; 27.1 µM (inactive) in the assay on HOP-92. The GI50 with M14 was 24 µM (inactive); in the assay with MDA-MB-231, 12.3 µM (inactive); in the assay on UACC-257, 21.4 µM (inactive); with SNB-19, 32 µM (inactive); with HL-60 it was 2.72 µM (inactive); in the assay with RXF 393 it was 3.29 µM (inactive). The GI50 in the assay with CAKI-1 is 24.5 µM (inactive); in the assay on SK-MEL-5, 15.1 µM (inactive); with MDA-N it was 26 µM (inactive); with MCF7, 20 µM (inactive); in the assay with T47D it was > 100 µM (inactive); in the assay with UO-31 it was 17.2 µM (inactive).

Consider `C=CCSc1nc2c(N)ncnc2n1C1OC(CO)C(O)C1O` (centres undefined), for which the GI50 in the assay on SNB-75, in the assay with OVCAR-3, in the assay on NCI-H522, in the assay with TK-10, in the assay on HOP-92 and in the assay on SK-MEL-28 was > 100 µM (inactive) in each case. In addition, the GI50 in the assay on M14, in the assay with MDA-MB-231, in the assay with UACC-257, in the assay with SNB-19, in the assay on HL-60 and in the assay on RXF 393 was > 100 µM (inactive) in each case. For the same molecule, the GI50 in the assay on U-251, in the assay on CAKI-1, with SK-MEL-5, with MDA-N, with MCF7 and in the assay with T47D was > 100 µM (inactive) throughout. Moreover, the GI50 in the assay with UO-31 was > 100 µM (inactive).

In the case of `O=C1Nc2ccccc2S/C1=C\c1ccc(C(F)(F)F)cc1`, the GI50 in the assay with SNB-75 was 37.1 µM (inactive); in the assay on OVCAR-3, > 100 µM (inactive); with NCI-H522 it was > 100 µM (inactive); with TK-10 it was > 100 µM (inactive); in the assay with HOP-92, > 100 µM (inactive); with SK-MEL-28, > 100 µM (inactive). For the same molecule, the GI50 in the assay with M14, in the assay with MDA-MB-231, with UACC-257, with SNB-19, with HL-60 and with RXF 393 was > 100 µM (inactive) in each case. In addition, the GI50 is > 100 µM (inactive) in the assay on U-251; 4.59 µM (inactive) in the assay with CAKI-1; > 100 µM (inactive) with SK-MEL-5; > 100 µM (inactive) in the assay on MDA-N; > 100 µM (inactive) in the assay on MCF7; > 100 µM (inactive) in the assay on T47D. For the same molecule, the GI50 in the assay on UO-31 was 94 µM (inactive).

In the case of `CN(C)CC1CCC/C(=C\c2ccc(OC(=O)/C=C/c3ccc(Cl)cc3)cc2)C1=O` (centres undefined), the GI50 in the assay with SNB-75 is 8.93 µM (inactive); in the assay with OVCAR-3, 4.97 µM (inactive); with NCI-H522, 0.916 µM (active); with CCRF-CEM, 1.06 µM (active); in the assay on TK-10, 1.31 µM (inactive); in the assay on HOP-92, 1.57 µM (inactive). In addition, the GI50 in the assay with SK-MEL-28 was 6.14 µM (inactive); in the assay on M14, 6.1 µM (inactive); in the assay with MDA-MB-231, 5.21 µM (inactive); with UACC-257 it was 11.5 µM (inactive); in the assay with SNB-19, 8.43 µM (inactive); in the assay on HL-60, 1.07 µM (active). The GI50 in the assay with RXF 393 was 1.32 µM (inactive); in the assay with U-251 it was 3.13 µM (inactive); in the assay with CAKI-1, 2.62 µM (inactive); with SK-MEL-5, 2.16 µM (inactive); with MDA-N, 6.9 µM (inactive); in the assay on MCF7, 1.08 µM (active). For the same molecule, the GI50 with T47D is 1.15 µM (inactive); in the assay with UO-31 it was 4.99 µM (inactive).

Regarding `N/N=c1\[nH]c2ccccc2o1`, the GI50 in the assay on SNB-75 is > 100 µM (inactive); with NCI-H522 it was 57.1 µM (inactive); with CCRF-CEM it was 31.7 µM (inactive); in the assay on TK-10, > 100 µM (inactive); in the assay with HOP-92, > 100 µM (inactive); in the assay on SK-MEL-28, > 100 µM (inactive). Further, the GI50 with M14 is > 100 µM (inactive); in the assay with MDA-MB-231, > 100 µM (inactive); with UACC-257, > 100 µM (inactive); in the assay on SNB-19, > 100 µM (inactive); with HL-60, 53.6 µM (inactive); with RXF 393, > 100 µM (inactive). The GI50 was > 100 µM (inactive) in the assay with U-251; > 100 µM (inactive) in the assay on CAKI-1; > 100 µM (inactive) in the assay on SK-MEL-5; > 100 µM (inactive) in the assay with MDA-N; 88.7 µM (inactive) in the assay on MCF7; 30.1 µM (inactive) with T47D. For the same molecule, in the assay with UO-31, the GI50 is 93.5 µM (inactive).

The record behind these values is ChEMBL document CHEMBL1201862, “PubChem BioAssay data set” (2004).
